The text below walks through data of PMC4956498 (Planta medica, 2016).

Series [1] relates to Hepa 1c1c7 cells. Briefly: Cytotoxicity against Hepa 1c1c7 cells. Type of series: cell-based, mouse. Conditions: read-out: IC50, concentration that inhibits 50% cell growth.
The test system of series [2] is quinone reductase. In words: Quinone reductase induction assay in Hepa 1c1c7 cells. Type of series: cell-based, mouse. Conditions: for CD, concentration required to double quinone reductase activity: 48 h.
Series [3] deals with K-Ras (Homo sapiens, UniProt P01116). Briefly: K-Ras inhibition assay in HT-29 cells. Type of series: cell-based. Conditions: for IC50: read-out: K-Ras inhibition IC50.
For series [4], the target named is p65 subunit of NF-κB (Homo sapiens, UniProt Q04206). Briefly: cell-based. Type of series: cell-based.
The subject of series [5] is mice. Particulars: cited from earlier work; for LD50, acute toxicity to mice: ip administration.
Series [6] deals with CCD-112CoN human normal colon cell line. Particulars: cited from earlier work.
A short description of series [7]: in vitro. Particulars: human.
In series [8] the test system is quinone reductase. Particulars: in vitro; cited from earlier work.
Setting [9] is: read-out: NF-κB p65 inhibition IC50, in HeLa cells.

Where two headings read alike, the source gives them in different places. Bounds are passed on as bounds.

Chain of p65 subunit of NF-κB (Q04206 whole entry): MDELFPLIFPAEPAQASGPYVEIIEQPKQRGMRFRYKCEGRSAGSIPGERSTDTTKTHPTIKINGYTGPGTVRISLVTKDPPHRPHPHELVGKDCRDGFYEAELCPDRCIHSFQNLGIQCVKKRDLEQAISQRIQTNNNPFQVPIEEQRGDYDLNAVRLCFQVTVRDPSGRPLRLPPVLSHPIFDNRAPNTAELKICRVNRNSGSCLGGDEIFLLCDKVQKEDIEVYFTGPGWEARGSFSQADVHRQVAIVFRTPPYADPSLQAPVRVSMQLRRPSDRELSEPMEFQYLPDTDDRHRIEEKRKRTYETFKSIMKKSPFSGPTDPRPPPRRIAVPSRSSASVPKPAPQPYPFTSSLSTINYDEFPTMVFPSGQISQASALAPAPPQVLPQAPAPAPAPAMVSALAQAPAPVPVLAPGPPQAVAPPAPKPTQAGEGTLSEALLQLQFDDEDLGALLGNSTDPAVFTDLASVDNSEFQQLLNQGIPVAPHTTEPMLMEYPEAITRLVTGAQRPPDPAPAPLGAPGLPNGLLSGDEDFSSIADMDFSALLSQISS

In the case of `COC1=CC2=C(O[C@H]3COc4cc5c(cc4[C@@]3(O)C2=O)OCO5)C(CC=C(C)C)(CC=C(C)C)C1=O` (relative stereo) [Compound 3, (6aS,12aS)-rel-6a,12a-dihydro-12a-hydroxy-10-methoxy-8,8-bis(3-methyl-2-buten-1-yl)-[1]benzopyrano[2,3-c]-1,3-dioxolo[4,5-g][1] benzopyran-9,12(6H, 8H)-dione], the IC50 in series [1] (Hepa 1c1c7 cell line, 48 h) is above 40 µM. In series [2], the “CI, chemopreventive index (IC50/CD)” value was above 16.8 and the “CD, concentration required to double quinone reductase activity” value (“CD … to double quinone reductase activity” below) is reported as 2.4 µM.
Take `COc1cc2c(cc1OC)C1(O)C(=O)c3c(O)cc4c(c3OC1CO2)C=CC(C)(C)O4` (single isomer, unassigned; (+)) [Compound 11, (+)-3-hydroxy-α-toxicarol]: the IC50 in series [1] (Hepa 1c1c7 cell line, 48 h) was above 40 µM. For the same compound, in series [3], the “K-Ras inhibitory activity (in words)” value was “inactive”. Also, the “CD … to double quinone reductase activity” value in series [2] came out at 6.6 µM.
In the case of `COc1cc2c(c3c1OC(C)(C)C=C3)O[C@H]1COc3cc4c(cc3[C@@]1(O)C2=O)OCO4` [Compound 1, (5aS ,12bS)-5a,12b-dihydro-12b-hydroxy-15-methoxy-2,2-dimethyl-2H-[1, 3]dioxolo[4,5-g]pyrano[2,3-c:6,5-f ‘]bis[1]benzopyran-13(6H)-one], the IC50 in series [1] (Hepa 1c1c7 cell line, 48 h) was above 40 µM; in series [3], 9.4 µM; in series [4] (setting [9]) it was above 10 µM. In addition, the “CD … to double quinone reductase activity” value in series [2] is on record as 19.8 µM.
For `COc1cc2c(c3c1OC(C)(C)C=C3)O[C@H]1COc3cc4c(cc3[C@H]1C2=O)OCO4` [Compound 2, (5aR, 12bR)-5a,12b-dihydro-15-methoxy-2,2-dimethyl-2H-[1, 3]dioxolo[4,5-g]pyrano[2,3-c:6,5-f'] bis[1]benzopyran-13(6H)-one], the IC50 in series [1] (Hepa 1c1c7 cell line, 48 h) was determined as 17.8 µM. Also, in series [2], the “CI, chemopreventive index (IC50/CD)” value is recorded as 8.1 and the “CD … to double quinone reductase activity” value worked out at 2.2 µM.
With `C=C(C)[C@H]1Cc2c(ccc3c2O[C@@H]2COc4cc(OC)c(OC)cc4[C@@H]2C3=O)O1` [Compound 7, (−)-rotenone], the “LD50, acute toxicity to mice” value in series [5] is 2.5 mg/kg. Further, the IC50 in series [4] is above 10 µM. In series [6], the “Cytotoxicity against the CCD-112CoN human normal colon cell line (in words)” value is recorded as “lack of cytotoxicity”. For the same compound, the IC50 at 3 days in series [7] was 0.3 µM.
In the case of `COc1cc2c(cc1-c1coc3c4c(c(OC)cc3c1=O)OC(C)(C)C=C4)OCO2` [Compound 8, ichthynone], the IC50 was 35 µM in series [1] (Mus musculus, Hepa-1c1c7, 48 h); above 10 µM in series [4]; above 10 µM in series [7]. For the same compound, in series [2], the “CI, chemopreventive index (IC50/CD)” value stood at 19.4. Moreover, the “CD … to double quinone reductase activity” value in series [2] is given as 1.8 µM.
Take `C[S@@+]([O-])CCCCN=C=S` [L-sulforaphane, reference compound]: in series [1] (Mus musculus, Hepa-1c1c7, 48 h), the IC50 was determined as 20.9 µM. Moreover, in series [2], the “CI, chemopreventive index (IC50/CD)” value was 40.8 and the “CD … to double quinone reductase activity” value was determined as 0.51 µM.
For the compound `COc1cc2c(cc1OC)[C@@H]1C(=O)c3ccc4c(c3O[C@@H]1CO2)C=CC(C)(C)O4` [deguelin, reference compound], the “LD50, acute toxicity to mice” value in series [5] was 5.0 mg/kg.
As for (−)-3-hydroxyrotenone [Compound 6], the Lethality to mice entry in series [5] (dose of 5 mg/kg (ip)) was “lethal”. Also, the values for the IC50 in series [3] and in series [4] (setting [9]) were 3.1 µM and 5.3 µM, respectively. The “Cytotoxicity against the CCD-112CoN human normal colon cell line (in words)” value in series [6] is “lack of cytotoxicity”.
As to caeruleanone C, the “Quinone reductase (QR) induction (in words)” value in series [8] is “potently induce”.
